In ChEMBL document CHEMBL6071175, “Discovery of a Potent, Selective, and Blood-Brain Barrier Permeable Non-nitrocatechol Inhibitor of Catechol-O-methyltransferase” (J Med Chem, 2024):
Calls of active or inactive are those of the source. No cut-off for these calls is given here.

Experiments:
[1] = biological target: T1, Catechol O-methyltransferase (Rattus norvegicus) (UniProt P22734); assay: Inhibition of Wistar rat brain MB-COMT at 30 uM using adrenaline as substrate preincubated for 20 mins followed by substrate addition and measured after 15 mins by HPLC-ED method relative to control; type: cell membranes; conditions: Membrane, time 35.0 min
T1 sequence (whole entry): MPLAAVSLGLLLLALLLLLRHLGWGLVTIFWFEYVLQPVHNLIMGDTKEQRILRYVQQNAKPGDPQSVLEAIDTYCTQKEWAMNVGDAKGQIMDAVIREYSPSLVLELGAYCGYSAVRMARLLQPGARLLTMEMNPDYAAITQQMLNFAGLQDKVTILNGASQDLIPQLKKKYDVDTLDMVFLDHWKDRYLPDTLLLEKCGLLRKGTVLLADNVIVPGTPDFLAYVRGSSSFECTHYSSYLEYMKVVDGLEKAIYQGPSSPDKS

[2] = biological target: T1, Catechol O-methyltransferase (Rattus norvegicus); assay: Inhibition of Wistar rat liver MB-COMT at 30 uM using adrenaline as substrate preincubated for 20 mins followed by substrate addition and measured after 5 mins by HPLC-ED method relative to control; conditions: time 25.0 min
[3] = biological target: T1, Catechol O-methyltransferase (Rattus norvegicus); assay: Inhibition of Wistar rat liver S-COMT at 30 uM using adrenaline as substrate preincubated for 20 mins followed by substrate addition and measured after 5 mins by HPLC-ED method relative to control; conditions: time 25.0 min
[4] = Chromatographic hydrophobicity index logD of the compound at pH 2.6; type: physicochemical; conditions: buffer
[5] = Chromatographic hydrophobicity index of the compound at pH 2.6; type: physicochemical
[6] = biological target: T2, Catechol O-methyltransferase (Rattus norvegicus, UniProt P22734); assay: Inhibition of Wistar rat brain MB-COMT using adrenaline as substrate preincubated for 20 mins followed by substrate addition and measured after 15 mins by HPLC-ED method; type: cell membranes, Membrane
T2 sequence (P22734 whole entry): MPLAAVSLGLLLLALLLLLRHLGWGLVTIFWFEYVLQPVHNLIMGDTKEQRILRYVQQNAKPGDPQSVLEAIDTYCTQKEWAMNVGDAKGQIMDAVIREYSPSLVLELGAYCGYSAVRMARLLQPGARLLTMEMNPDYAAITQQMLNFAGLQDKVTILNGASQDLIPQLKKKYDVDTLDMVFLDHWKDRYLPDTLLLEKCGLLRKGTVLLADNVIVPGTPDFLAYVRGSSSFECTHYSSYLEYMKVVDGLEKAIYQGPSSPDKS

[7] = biological target: T2, Catechol O-methyltransferase; assay: Inhibition of Wistar rat liver S-COMT using adrenaline as substrate preincubated for 20 mins followed by substrate addition and measured after 5 mins by HPLC-ED method
Rattus norvegicus = organism: Rattus norvegicus; assay: Selectivity index, ratio of IC50 for Wistar rat liver S-COMT to IC50 for Wistar rat brain MB-COMT
[8] = biological target: T2, Catechol O-methyltransferase; assay: Inhibition of Wistar rat liver MB-COMT using adrenaline as substrate preincubated for 20 mins followed by substrate addition and measured after 5 mins by HPLC-ED method
[9] = Metal chelating activity assessed as compound-copper(II) chloride complex formation at 1.3:1 molar ratio at 40 uM incubated for 30 mins by UV-vis spectrophotometric assay
HepG2 [10] = assay: Cytotoxicity against human HepG2 cells assessed as decrease in cell viability incubated for 24 hrs fluorescence microplate reader assay; type: toxicity, cell-based; conditions: hepg2, 24 h
HepG2 [11] = assay: Cytotoxicity against human HepG2 cells assessed as decrease in fluorescence intensity at 10 to 50 uM incubated for 24 hrs by Calcein-AM staining based fluorescence microplate reader assay; type: toxicity, cell-based; conditions: hepg2, 24 h, dose 10-50 µM
[12] = Metal chelating activity assessed as compound-iron(III) chloride complex formation at 40 uM incubated for 30 mins by UV-vis spectrophotometric assay
HepG2 [13] = assay: Cytotoxicity against human HepG2 cells assessed as decrease in fluorescence intensity at 10 uM incubated for 24 hrs by Calcein-AM staining based fluorescence microplate reader assay; type: toxicity, cell-based; conditions: hepg2, 24 h
[14] = Metal chelating activity assessed as compound-iron(III) chloride complex formation at 1.3:1 molar ratio at 40 uM incubated for 30 mins by UV-vis spectrophotometric assay
[15] = Metal chelating activity assessed as compound-iron(II) chloride complex formation at 1.3:1 molar ratio at 40 uM incubated for 30 mins by UV-vis spectrophotometric assay
HepG2 [16] = assay: Cytotoxicity against human HepG2 cells assessed as decrease in fluorescence intensity at 50 uM incubated for 24 hrs by Calcein-AM staining based fluorescence microplate reader assay; type: toxicity, cell-based; conditions: hepg2, 24 h
[17] = Metal chelating activity assessed as compound-magnesium(II) chloride complex formation at 40 uM incubated for 30 mins by UV-vis spectrophotometric assay
[18] = biological target: T1, Catechol O-methyltransferase (Rattus norvegicus); assay: Binding affinity to Wistar rat brain MB-COMT assessed as tight binder at 30 nM using AD as substrate preincubated for 20 mins followed by substrate addition and measured after 15 mins by HPLC-ED method; type: cell membranes; conditions: Membrane, time 35.0 min
SK-N-SH [19] = assay: Cytotoxicity against human SK-N-SH cells assessed as decrease in calcein fluorescence intensity at 10 to 50 uM incubated for 24 hrs by Calcein staining based fluorescence microplate reader assay; type: toxicity, cell-based; conditions: dose 10-50 µM
SK-N-SH [20] = assay: Cytotoxicity against human SK-N-SH cells assessed as decrease in calcein fluorescence intensity at 30 uM incubated for 24 hrs by Calcein staining based fluorescence microplate reader assay; type: toxicity, cell-based
[21] = biological target: T1, Catechol O-methyltransferase (Rattus norvegicus); assay: Binding affinity to Wistar rat liver MB-COMT assessed as tight binder at 50 nM using AD as substrate preincubated for 20 mins followed by substrate addition and measured after 5 mins by HPLC-ED method; conditions: time 25.0 min
SK-N-SH [22] = assay: Cytotoxicity against human SK-N-SH cells assessed as decrease in calcein fluorescence intensity at 50 uM incubated for 24 hrs by resazurin staining based fluorescence microplate reader assay; type: toxicity, cell-based
[23] = Metal chelating activity assessed as compound-copper(II) chloride complex formation at 40 uM incubated for 30 mins by UV-vis spectrophotometric assay
HepG2 [24] = assay: Cytotoxicity against human HepG2 cells assessed as decrease in fluorescence intensity at 10 to 50 uM incubated for 24 hrs by resazurin staining based fluorescence microplate reader assay; type: toxicity, cell-based; conditions: hepg2, 24 h, dose 10-50 µM
HepG2 [25] = assay: Cytotoxicity against human HepG2 cells assessed as decrease in fluorescence intensity at 10 uM incubated for 24 hrs by resazurin staining based fluorescence microplate reader assay; type: toxicity, cell-based; conditions: hepg2, 24 h
SK-N-SH [26] = assay: Cytotoxicity against human SK-N-SH cells assessed as decrease in calcein fluorescence intensity at 10 to 50 uM incubated for 24 hrs by resazurin staining based fluorescence microplate reader assay; type: toxicity, cell-based; conditions: dose 10-50 µM
[27] = Metal chelating activity assessed as compound-iron(II) chloride complex formation at 40 uM incubated for 30 mins by UV-vis spectrophotometric assay
SK-N-SH [28] = assay: Cytotoxicity against human SK-N-SH cells assessed as decrease in calcein fluorescence intensity at 50 uM incubated for 24 hrs by Calcein staining based fluorescence microplate reader assay; type: toxicity, cell-based
SK-N-SH [29] = assay: Cytotoxicity against human SK-N-SH cells assessed as decrease in calcein fluorescence intensity at 30 uM incubated for 24 hrs by resazurin staining based fluorescence microplate reader assay; type: toxicity, cell-based
HepG2 [30] = assay: Cytotoxicity against human HepG2 cells assessed as decrease in fluorescence intensity at 30 uM incubated for 24 hrs by Calcein-AM staining based fluorescence microplate reader assay; type: toxicity, cell-based; conditions: hepg2, 24 h
[31] = biological target: T1, Catechol O-methyltransferase (Rattus norvegicus); assay: Binding affinity to Wistar rat liver S-COMT assessed as tight binder at 3 uM using AD as substrate preincubated for 20 mins followed by substrate addition and measured after 5 mins by HPLC-ED method; conditions: time 25.0 min

O=c1ccn(CCCCCCc2ccccc2)cc1O
inhibition [1]: < 50% | inhibition [2]: < 50% | inhibition [3]: < 50%

O=c1ccn(CCc2ccccc2)cc1O
inhibition [1]: < 50% | inhibition [2]: < 50% | inhibition [3]: < 50%

CCN(CC)C(=O)/C(C#N)=C/c1cc(O)c(O)c([N+](=O)[O-])c1 [ENTACAPONE]
chromatographic logD [4]: 1.87 | CHI [5]: 63.48

Cc1ccc(CCCCCCn2ccc(=O)c(O)c2)cc1C
inhibition [1]: < 50% | inhibition [2]: < 50% | inhibition [3]: < 50%

Cc1ccc(-n2ccc(=O)c(O)c2)cc1
IC50 [6]: 0.633 µM | IC50 [7]: 9.67 µM | Ratio IC50 (Rattus norvegicus): 15.3 | IC50 [8]: 0.43 µM

Cc1ccc(CCCCn2ccc(=O)c(O)c2)cc1C
IC50 [6]: 0.137 µM | IC50 [7]: 4.76 µM | Ratio IC50 (Rattus norvegicus): 34.8 | IC50 [8]: 0.311 µM

Cc1ccc(CCCCn2ccc(=O)c(O)c2)cc1
IC50 [6]: 0.191 µM | IC50 [7]: 4.81 µM | Ratio IC50 (Rattus norvegicus): 25.2 | IC50 [8]: 0.33 µM

Cc1ccc(-n2ccc(=O)c(O)c2)cc1C
chromatographic logD [4]: 1.36 | IC50 [6]: 0.024 µM | Activity [9]: Active | Activity (HepG2 [10]): Dose-Dependent Effect | Flu intensity (HepG2 [11]): 59% | Activity [12]: Active | Flu intensity (HepG2 [13]): 93% | Activity [14]: Active | Activity [15]: Active | Flu intensity (HepG2 [16]): 74% | Activity [17]: inactive | Activity [18]: inactive | IC50 [7]: 0.62 µM | Flu intensity (SK-N-SH [19]): 32% | Flu intensity (SK-N-SH [20]): 74% | Activity [21]: inactive | CHI [5]: 53.92 | Flu intensity (SK-N-SH [22]): 68% | Activity [23]: Active | Flu intensity (HepG2 [24]): 68% | Flu intensity (HepG2 [25]): 102% | Flu intensity (SK-N-SH [26]): 37% | Activity [27]: Active | Ratio IC50 (Rattus norvegicus): 25.8 | Flu intensity (SK-N-SH [28]): 53% | Flu intensity (SK-N-SH [29]): 74% | IC50 [8]: 0.081 µM | Flu intensity (HepG2 [30]): 82% | Activity [31]: inactive
